Measurements published in patent US8729116B2, “Triazole compound having pesticidal activities” (Kumiai Chemical Industry Co., Ltd., priority 2010, dated 2014).

Assays:
Type in all cases: in vivo
[1] = tested on: susceptible strain two-spotted spider mite (Tetranychus urticae); assay: Miticidal activity against adults of two-spotted spider mite (susceptible strain), leaf disk spray test; conditions: foliar, 48 h, spray 2 mg/cm^2 on kidney bean leaf disks, female adults, two days after treatment
Method: Miticidal Activity Against Adults of Two-Spotted Spider Mite (Susceptible Strain) (Leaf Disk Spray Test)
A plastic cup having a capacity of 60 mL was half-filled with water, and a perforated cover was put thereon. Absorbent cotton was impregnated with water through the perforations, and two sheets of filter paper were overlaid thereon. Two leaves of kidney beans (Phaseolus vulgaris) cutout in a circular shape with a diameter of 2, cm, were put thereon, and ten female adults of susceptible strain two-spotted spider mite (Tetranychus urticae) were inoculated and left to stand overnight in a constant temperature chamber at 25° C. (photoperiod conditions: light period of 16 hours/dark period of 8 hours). […] Upon expiration of two days after the treatment, the number of dead mites was counted, and the mortality was calculated by the formula 1. The test was carried out twice.

[2] = tested on: resistant strain two-spotted spider mite (Tetranychus urticae); assay: Miticidal activity against adults of two-spotted spider mite (resistant strain), leaf disk spray test; conditions: spray 2 mg/cm^2 on kidney bean leaf disks, female adults, two days after treatment; for Mortality (%): 100 ppm
Method: Miticidal Activity Against Adults of Two-Spotted Spider Mite (Resistant Strain) (Leaf Disk Spray Test)
A plastic cup having a capacity of 60 mL was half-filled with water, and a perforated cover was put thereon. Absorbent cotton was impregnated with water through the perforations, and two sheets of filter paper were overlaid thereon. Two leaves of kidney beans (Phaseolus vulgaris) cutout in a circular shape with a diameter of 2 cm, were put thereon, and ten female adults of resistant strain two-spotted spider mite (Tetranychus urticae) were inoculated and left to stand overnight in a constant temperature chamber at 25° C. (photoperiod conditions: light period of 16 hours/dark period of 8 hours). After removing abnormal mites and dead mites, a pesticide prepared by diluting the test compound formulated in accordance with Formulation Example 2 with a diluent such as water, as shown in Table 2 was sprayed by an automatic spraying device (2 mg/cm^2). Upon expiration of two days after the treatment, the number of dead mites was counted, and the mortality was calculated by the formula 1. The test was carried out twice.

[3] = tested on: resistant strain red mite (Panonychus citri); assay: Miticidal activity against adults of red mite (resistant strain), leaf disk spray test; conditions: spray 2 mg/cm^2 on cinnamon leaf disks, female adults, two days after treatment; for Mortality (%): 6.25 ppm
Method: Miticidal Activity Against Adults of Red Mite (Resistant Strain) (Leaf Disk Spray Test)
0.5 mass % of agar was blended to water and put into a plastic cup having a capacity of 60 mL, and two cinnamon leaf disks were put thereon and ten female adults of resistant strain red mite (Panonychus citri) were inoculated and left to stand overnight at a constant temperature chamber at 25° C. (photoperiod conditions: light period of 16 hours/dark period of 8 hours). […] Upon expiration of two days after the treatment, the number of dead mites was counted, and the mortality was calculated by the formula 1. The test was carried out twice.

[4] = tested on: susceptible strain two-spotted spider mite (Tetranychus urticae); assay: Penetration/transfer activity against two-spotted spider mite (susceptible strain), soil irrigation cup test; conditions: 0.0031 mg a.i./seedling, soil drench 5 mL/seedling, soybean, live mites counted after 13 days
Method: Penetration/Transfer Activity Against Two-Spotted Spider Mite (Susceptible Strain) (Soil Irrigation Cup Test)
To soybean (Glycine max) planted in a plastic cup, 35 female adults of susceptible strain two-spotted spider mite (Tetranychus urticae) were inoculated and left to stand overnight at a constant temperature chamber at 25° C. (photoperiod conditions: light period of 16 hours/dark period of 8 hours). A test pesticide prepared by diluting the test compound formulated in accordance with Formulation Example 2 to a predetermined concentration as disclosed in Table 4, was applied by soil drench treatment (5 mL/seedling). Upon expiration of 13 days, the number of live mites was counted, and the preventive value was calculated by the formula 2. The test was carried out twice.

Row | Structure (SMILES) | mortality at 3.125 ppm [1] | mortality at 100 ppm ([2]; Tetranychus urticae, foliar, 48 h) | mortality at 6.25 ppm ([3]; Panonychus citri, foliar, 48 h) | Preventive value (%) [4] | Mortality (%) [2] | Mortality (%) [3] | mortality at 6.25 ppm ([1]; 6.25 ppm)
1 | Cc1cc(F)c(-n2nc(C(F)(F)F)nc2N)cc1[S+]([O-])CC(F)(F)F (racemic) [Compound No. II, 1-[2-fluoro-4-methyl-5-(2,2,2-trifluoroethylsulfinyl)phenyl]-5-amino-3-(trifluoromethyl)-1H-1,2,4-triazole, reference compound] | 8% | 16% | 36% | 0% |  |  | 
2 | Cc1cc(F)c(-n2nc(C(F)(F)F)nc2N)cc1[S+]([O-])CC(F)(F)F (single isomer, unassigned; (+)) [Compound No. I, (+)-1-[2-fluoro-4-methyl-5-(2,2,2-trifluoroethylsulfinyl)phenyl]-5-amino-3-(trifluoromethyl)-1H-1,2,4-triazole] | 79% |  |  | 100% | 94% | 93% | 
3 | Cc1cc(F)c(-n2nc(C(F)(F)F)nc2N)cc1[S+]([O-])CC(F)(F)F (single isomer, unassigned; (-)) [Compound No. III, (−)-1-[2-fluoro-4-methyl-5-(2,2,2-trifluoroethylsulfinyl)phenyl]-5-amino-3-(trifluoromethyl)-1H-1,2,4-triazole] |  |  |  | 0% | 0% | 0% | 0%
